In patent US20210000792A1, “METHODS FOR REDUCING OR PREVENTING CARDIOVASCULAR EVENTS IN PATIENTS WITH TYPE II DIABETES MELLITUS” (Janssen Pharmaceutica NV, priority 2017, published 2021):

Tests used:
[1] = system: men and women with type 2 diabetes and history or high risk of cardiovascular disease; test: CANVAS Program: integrated CANVAS and CANVAS-R clinical trials, canagliflozin versus placebo; assay type: in vivo, human; conditions: for Cardiovascular mortality, hazard ratio (95% confidence interval) / Total (all-cause) mortality, hazard ratio (95% confidence interval): full integrated dataset; for Primary outcome (cardiovascular mortality, nonfatal myocardial infarction, or nonfatal stroke), hazard ratio (95% confidence interval): canagliflozin vs placebo; for Primary outcome (cardiovascular mortality, nonfatal myocardial infarction, or nonfatal stroke), events per 1000 patient-years: integrated database of CANVAS and CANVAS-R
Excerpt: (§1) Two clinical trials were completed to assess the cardiovascular safety and efficacy of canagliflozin, and how any potential benefits might balance against known risks. The complete protocols for said trials, name CANVAS and CANVAS-R, which protocols are each incorporated in their entirety herein, may be found on www.clinicaltrials.gov (more specifically at the following urls: https://clinicaltrials.gov/ct2/show/NCT01032629?term=canvas&rank=1 and https://clinicaltrials.gov/ct2/show/NCT01989754?term=canvas-r&rank=1, respectively).
(§2) All potential participants completed a 2-week, single-blind, placebo run-in period. Randomization was done centrally through an interactive web response system using a computer-generated randomization schedule prepared by the study sponsor using randomly permuted blocks. Participants in CANVAS were randomly assigned in a 1:1:1 ratio to canagliflozin 300 mg, canagliflozin 100 mg, or matching placebo, and participants in CANVAS-R were randomly assigned in a 1:1 ratio to canagliflozin or matching placebo administered at an initial dose of 100 mg daily with optional up-titration to 300 mg from week 13. Participants and all study staff were masked to individual treatment allocations until the completion of the study. Use of other background therapy for glycemic management and other risk factor control was according to best practice instituted in line with local guidelines including Renin Angiotensin System (RAS) blockade.
(§3) Post-randomization, face-to-face follow-up was scheduled for 3 visits in the first year and at 6-month intervals thereafter, with alternating telephone follow-up between face-to-face assessments. Every follow-up included inquiry about primary and secondary outcome events and serious adverse events. Urinary albumin:creatinine ratio was measured every 26 weeks in CANVAS-R, and at Week 12 and then annually in CANVAS. Serum creatinine measurement with estimation of glomerular filtration rate (eGFR) was performed at least every 26 weeks in both trials. Individuals that prematurely discontinued study treatment continued scheduled follow-up wherever possible, with extensive efforts made to obtain full outcome data for all during the final follow-up window that spanned November 2016 to February 2017.
(§4) The primary outcome was a composite of cardiovascular mortality, nonfatal myocardial infarction, or nonfatal stroke. Secondary outcomes were total mortality; cardiovascular mortality; progression of albuminuria; and the composite of cardiovascular mortality and hospitalization for heart failure. Progression of albuminuria grade was defined as a more then 30% increase in albuminuria and a switch from either normoalbuminuria to microalbuminuria or macroalbuminuria, or from microalbuminuria to macroalbuminuria. In the event that sequential testing was not significant for all then remaining outcomes were scheduled for assessment as exploratory variables in the integrated dataset.
(§5) Evaluation of total hospitalizations was also prespecified.
(§6) All major cardiovascular events, renal outcomes and deaths, plus selected safety outcomes were ratified by Endpoint Adjudication Committees. Intermediate markers of cardiovascular risk and requirement for antihyperglycemic agents were assessed to help understand the observed effects on cardiovascular and renal outcomes. Analyses of safety were of adverse events coded using the latest version of the MedDRA Dictionary. For bone fracture, the primary prespecified analysis was for low-trauma fracture events but secondary analysis of all fractures was also done. Amputations were assessed overall but numbers of cases above and below the ankle were also reported.
(§7) The primary hypothesis test was of noninferiority for the hazard ratio (HR) for the primary outcome at the margin of 1.3 for all canagliflozin versus placebo using the full integrated dataset and the intent to treat approach. […]

[2] = system: men and women with type 2 diabetes and history or high risk of cardiovascular disease; test: CANVAS clinical trial, canagliflozin 300 mg or 100 mg versus placebo; assay type: in vivo, human; conditions: canagliflozin group
Excerpt: as §1, §2, §3, §4, §5, §6, §7

[3] = CANVAS Program, vs placebo, listed as canagliflozin
[4] = CANVAS Program, canagliflozin group
[5] = canagliflozin compared to placebo, combined trials n=10,142
[6] = integrated CANVAS and CANVAS-R, canagliflozin group
[7] = integrated database with removal of all study time and mortality events accrued prior to Nov. 20, 2012
[8] = integrated database with removal of all study time and mortality events accrued prior to Nov. 20, 2012, vs placebo

For Cc1ccc([C@@H]2O[C@H](CO)[C@@H](O)[C@H](O)[C@H]2O)cc1Cc1ccc(-c2ccc(F)cc2)s1 [Canagliflozin, canagliflozin], the “Cardiovascular mortality, hazard ratio (95% confidence interval)” value ([1]; CANVAS Program, vs placebo) was 0.87 (0.72-1.06), the “Total (all-cause) mortality, hazard ratio (95% confidence interval)” value ([1]; CANVAS Program, vs placebo) was 0.87 (0.74-1.01) and the “Cardiovascular mortality, hazard ratio (95% confidence interval)” value [1, 3] was 0.87. The “Total (all-cause) mortality, hazard ratio (95% confidence interval)” value [1, 3] was 0.87, the “40% reduction in eGFR, RRT, or renal death, n/N” value [1, 4] was 124/5795 and the “40% reduction in eGFR, RRT, renal death or macroalbuminuria, n/N” value [1, 4] was 404/5795. For the same compound, the “40% reduction in eGFR, RRT, renal or CV death, n/N” value [1, 4] was 379/5795, the “Cardiovascular mortality or hospitalization for heart failure, n/N” value [1, 4] was 364/5795 and the “Cardiovascular mortality, n/N” value [1, 4] was 268/5795. For the same compound, the “Cardiovascular mortality, nonfatal myocardial infarction, or nonfatal stroke, n/N” value [1, 4] was 585/5795, the “Hospitalization for heart failure, n/N” value [1, 4] was 123/5795 and the “Nonfatal myocardial infarction, n/N” value [1, 4] was 215/5795. The “Nonfatal stroke, n/N” value [1, 4] was 158/5795, the “Progression of albuminuria, n/N” value [1, 4] was 1341/5196 and the “Regression of albuminuria, n/N” value [1, 4] was 885/1679. For the same compound, the “Total mortality, n/N” value [1, 4] was 400/5795, the “Primary outcome (cardiovascular mortality, nonfatal myocardial infarction, or nonfatal stroke), hazard ratio (95% confidence interval)” value ([1]; CANVAS Program) was 0.86 (0.75-0.97) and the “Primary outcome (cardiovascular mortality, nonfatal myocardial infarction, or nonfatal stroke), hazard ratio (95% confidence interval)” value ([1]; CANVAS Program, listed as canagliflozin) was 0.86. The “40% reduction in eGFR, RRT, or renal death, hazard ratio (95% confidence interval)” value ([1]; CANVAS Program, vs placebo) was 0.60 (0.47-0.77), the “40% reduction in eGFR, RRT, renal death or macroalbuminuria, hazard ratio (95% confidence interval)” value ([1]; CANVAS Program, vs placebo) was 0.57 (0.50-0.66) and the “40% reduction in eGFR, RRT, renal or CV death, hazard ratio (95% confidence interval)” value ([1]; CANVAS Program, vs placebo) was 0.77 (0.66-0.89). For the same compound, the “Cardiovascular mortality or hospitalization for heart failure, hazard ratio (95% confidence interval)” value ([1]; CANVAS Program, vs placebo) was 0.78 (0.67-0.91), the “Hospitalization for heart failure, hazard ratio (95% confidence interval)” value ([1]; CANVAS Program, vs placebo) was 0.67 (0.52-0.87) and the “Nonfatal myocardial infarction, hazard ratio (95% confidence interval)” value ([1]; CANVAS Program, vs placebo) was 0.85 (0.69-1.05). For the same compound, the “Nonfatal stroke, hazard ratio (95% confidence interval)” value ([1]; CANVAS Program, vs placebo) was 0.90 (0.71-1.15), the “Progression of albuminuria, hazard ratio (95% confidence interval)” value ([1]; CANVAS Program, vs placebo) was 0.73 (0.67-0.79) and the “Regression of albuminuria, hazard ratio (95% confidence interval)” value ([1]; CANVAS Program, vs placebo) was 1.70 (1.51-1.91). The “40% reduction in eGFR, RRT, or renal death, hazard ratio (95% confidence interval)” value [1, 3] was 0.60, the “Progression of albuminuria, hazard ratio (95% confidence interval)” value [1, 3] was 0.73 and the “Use of other antihyperglycemic agents during follow-up, lower than placebo group” value ([1]; canagliflozin compared to placebo group) was 9.3%. For the same compound, the “Mean difference in body weight” value [1, 5] was -1.60 kg, the “Mean difference in glycated hemoglobin” value [1, 5] was −0.58% and the “Mean difference in systolic blood pressure” value [1, 5] was −3.93 mmHg. The “Composite of sustained 40% reduction in eGFR, end-stage kidney disease or renal death, events per 1000 patient-years” value [1, 6] was 5.5 /1000 patient-years, the “Progression of albuminuria grade, events per 1000 patient-years” value [1, 6] was 89.4 /1000 patient-years and the “Primary outcome (cardiovascular mortality, nonfatal myocardial infarction, or nonfatal stroke), events per 1000 patient-years” value ([1]; canagliflozin group) was 26.93 per 1000 patient-years. The “Primary outcome (cardiovascular mortality, nonfatal myocardial infarction, or nonfatal stroke), events per 1000 patient-years” value ([1]; canagliflozin group, listed as canagliflozin) was 26.9 per 1000 patient-years, the “All-cause mortality, events per 1000 patient-years” value [1, 7] was 19.05 per 1000 patient-years and the “Cardiovascular death, events per 1000 patient-years” value [1, 7] was 12.82 per 1000 patient-years. For the same compound, the “All-cause mortality, hazard ratio (95% confidence interval)” value [1, 8] was 0.90 (0.76-1.07), the “Cardiovascular death, hazard ratio (95% confidence interval)” value [1, 8] was 0.96 (0.77-1.18) and the “Primary outcome hazard ratio when imputation for missing events was performed” value ([1]; multiple imputation for missing data, vs placebo) was 0.85. The “40% reduction in eGFR, RRT, or renal death, n/N” value [2] was 91/2888, the “40% reduction in eGFR, RRT, renal death or macroalbuminuria, n/N” value [2] was 292/2888 and the “40% reduction in eGFR, RRT, renal or CV death, n/N” value [2] was 286/2888. For the same compound, the “Cardiovascular mortality or hospitalization for heart failure, n/N” value [2] was 269/2888 and the “Cardiovascular mortality, n/N” value [2] was 207/2888.
